Test results reported in the CheMixHub viscosity set.

Test: xn = mol fraction of the nth substance listed

Nc1cccc(Cl)c1 + CCC(C)O
viscosity [mPa·s], 101 kPa
Settings	x1 = 0.0889	x1 = 0.1799	x1 = 0.2733	x1 = 0.3691	x1 = 0.4674	x1 = 0.5683	x1 = 0.6719	x1 = 0.7783	x1 = 0.8876
303.15 K	2.756	2.919	3.087	3.256	3.422	3.585	3.744	3.904	4.07
308.15 K	2.318	2.483	2.65	2.817	2.983	3.148	3.313	3.48	3.654
313.15 K	2.001	2.157	2.312	2.467	2.623	2.779	2.937	3.097	3.261
318.15 K	1.706	1.857	2.003	2.147	2.29	2.434	2.579	2.727	2.874

CC12CCC(CC1)C(C)(C)O2 + CCCCCC
298.15 K, 101.33 kPa
Settings	viscosity [mPa·s]
x2 = 0.0339	2.317
x2 = 0.0677	2.11
x2 = 0.1616	1.642
x2 = 0.2491	1.325
x2 = 0.3454	1.063
x2 = 0.4734	0.8
x2 = 0.6205	0.593
x2 = 0.7181	0.491
x2 = 0.8281	0.4
x2 = 0.8953	0.359
x2 = 0.9363	0.33

CCCOC(=O)CC + CCCCCC
298.15 K, 101.33 kPa
Settings	viscosity [mPa·s]
x1 = 0.0581	0.299
x1 = 0.1227	0.31
x1 = 0.2151	0.33
x1 = 0.3111	0.355
x1 = 0.3983	0.379
x1 = 0.4343	0.389
x1 = 0.4898	0.401
x1 = 0.5466	0.421
x1 = 0.586	0.433
x1 = 0.68	0.465
x1 = 0.8894	0.557
x1 = 0.9133	0.573

Cc1ccccc1Cl + CCCCCC
viscosity [mPa·s], 100 kPa
Settings	298.15 K	308.15 K	318.15 K
x1 = 0.0629	0.341	0.315	0.292
x1 = 0.1435	0.369	0.338	0.313
x1 = 0.2364	0.398	0.37	0.343
x1 = 0.3403	0.436	0.401	0.37
x1 = 0.4252	0.477	0.437	0.401
x1 = 0.4608	0.499	0.451	0.414
x1 = 0.5249	0.54	0.485	0.445
x1 = 0.5742	0.574	0.515	0.471
x1 = 0.6237	0.611	0.546	0.496
x1 = 0.6816	0.657	0.585	0.531
x1 = 0.7398	0.705	0.624	0.565
x1 = 0.8335	0.785	0.7	0.63
x1 = 0.9276	0.889	0.789	0.706

C1C[C@@H]2[C@H]3CC[C@H](C3)[C@@H]2C1 + CCCCCCCC
viscosity [mPa·s], 100 kPa
Settings	x1 = 0.1007	x1 = 0.2005	x1 = 0.2991	x1 = 0.4	x1 = 0.5001	x1 = 0.5986	x1 = 0.6988	x1 = 0.8019	x1 = 0.9005
293.15 K	0.616	0.697	0.806	0.956	1.085	1.282	1.537	1.896	2.342
298.15 K	0.582	0.655	0.756	0.892	1.007	1.187	1.415	1.735	2.13
303.15 K	0.551	0.618	0.711	0.83	0.94	1.102	1.311	1.597	1.95
308.15 K	0.523	0.585	0.67	0.78	0.879	1.027	1.215	1.475	1.793
313.15 K	0.499	0.555	0.634	0.733	0.825	0.96	1.13	1.367	1.654

CCCOC(=O)CC + CCCCCCCCCC
298.15 K, 101.33 kPa
Settings	viscosity [mPa·s]
x2 = 0.0964	0.647
x2 = 0.1323	0.65
x2 = 0.1683	0.653
x2 = 0.2534	0.661
x2 = 0.3486	0.672
x2 = 0.3989	0.68
x2 = 0.5459	0.706
x2 = 0.6381	0.728
x2 = 0.7337	0.756
x2 = 0.8679	0.802
x2 = 0.9275	0.827

CCC(C)c1ccccc1 (stereo not given) + CCCCCCCCCCCC
viscosity [mPa·s], 102 kPa
Settings	x1 = 0.1008	x1 = 0.2007	x1 = 0.2993	x1 = 0.4003	x1 = 0.4998	x1 = 0.62	x1 = 0.6996	x1 = 0.7999	x1 = 0.9004
293.15 K	1.41	1.33	1.26	1.19	1.131	1.064	1.027	0.992	0.959
303.15 K	1.19	1.128	1.072	1.02	0.971	0.923	0.896	0.862	0.835
313.15 K	1.015	0.973	0.935	0.893	0.853	0.812	0.784	0.755	0.732
323.15 K	0.888	0.852	0.817	0.783	0.751	0.717	0.694	0.669	0.649

CCCOC(=O)CC + CCCCCCCCCCCCCC
298.15 K, 101.33 kPa
Settings	viscosity [mPa·s]
x2 = 0.0774	0.704
x2 = 0.1347	0.757
x2 = 0.2041	0.828
x2 = 0.2829	0.915
x2 = 0.3321	0.972
x2 = 0.4571	1.13
x2 = 0.5528	1.263
x2 = 0.6895	1.473
x2 = 0.8219	1.706
x2 = 0.9084	1.878

CCCCCCCCCCCCCC[P+](CCCCCC)(CCCCCC)CCCCCC.c1c[n-]nn1 + CCCCCCCCCCCCCC[P+](CCCCCC)(CCCCCC)CCCCCC.O=S(=O)([N-]S(=O)(=O)C(F)(F)F)C(F)(F)F
viscosity [mPa·s], 100 kPa
Settings	x1 = 0.098	x1 = 0.201	x1 = 0.3	x1 = 0.401	x1 = 0.5	x1 = 0.599	x1 = 0.7	x1 = 0.797	x1 = 0.901
293.15 K	425	473	495	465	502	539	533	547	553
298.15 K	313	348	362	338	363	390	385	393	397
303.15 K	236	261	270	251	270	288	284	289	291
308.15 K	181	200	207	191	204	218	214	217	220
313.15 K	142	156	160	148	158	168	165	167	168
318.15 K	112	124	127	117	124	132	129	131	132
323.15 K	91	100	102	94	100	106	103	104	106

Nc1cccc(Cl)c1 + CCCCCCCCCCO
viscosity [mPa·s], 101 kPa
Settings	x1 = 0.1699	x1 = 0.3153	x1 = 0.4411	x1 = 0.5511	x1 = 0.6481	x1 = 0.7342	x1 = 0.8112	x1 = 0.8805	x1 = 0.9431
303.15 K	8.772	7.947	7.247	6.641	6.113	5.648	5.238	4.871	4.546
308.15 K	7.358	6.71	6.16	5.687	5.274	4.912	4.593	4.31	4.061
313.15 K	6.213	5.693	5.254	4.878	4.549	4.262	4.01	3.788	3.596
318.15 K	5.338	4.899	4.532	4.217	3.943	3.704	3.494	3.311	3.153

Nc1cccc(Cl)c1 + CCCCCCCCO
viscosity [mPa·s], 101 kPa
Settings	x1 = 0.1441	x1 = 0.2748	x1 = 0.3937	x1 = 0.5026	x1 = 0.6025	x1 = 0.6945	x1 = 0.7795	x1 = 0.8584	x1 = 0.9317
303.15 K	6.059	5.754	5.485	5.247	5.034	4.844	4.674	4.519	4.379
308.15 K	5.155	4.924	4.723	4.547	4.391	4.253	4.131	4.02	3.924
313.15 K	4.409	4.229	4.076	3.941	3.823	3.721	3.63	3.551	3.483
318.15 K	3.856	3.697	3.564	3.448	3.347	3.258	3.181	3.114	3.06

Nc1cccc(Cl)c1 + CCCCCCCO
viscosity [mPa·s], 101 kPa
Settings	x1 = 0.1306	x1 = 0.2526	x1 = 0.3669	x1 = 0.4741	x1 = 0.5749	x1 = 0.6698	x1 = 0.7593	x1 = 0.844	x1 = 0.9241
303.15 K	4.923	4.794	4.684	4.589	4.509	4.442	4.385	4.336	4.292
308.15 K	4.229	4.143	4.072	4.014	3.966	3.927	3.895	3.869	3.853
313.15 K	3.647	3.585	3.538	3.501	3.473	3.451	3.438	3.433	3.432
318.15 K	3.346	3.269	3.207	3.156	3.114	3.079	3.051	3.032	3.023

Nc1cccc(Cl)c1 + CCCCCCO
viscosity [mPa·s], 101 kPa
Settings	x1 = 0.1167	x1 = 0.2291	x1 = 0.3375	x1 = 0.4421	x1 = 0.5431	x1 = 0.6407	x1 = 0.735	x1 = 0.8263	x1 = 0.9145
303.15 K	3.905	3.925	3.95	3.98	4.014	4.056	4.104	4.156	4.205
308.15 K	3.383	3.417	3.454	3.497	3.545	3.598	3.654	3.715	3.776
313.15 K	2.939	2.976	3.017	3.064	3.115	3.17	3.229	3.292	3.357
318.15 K	2.662	2.681	2.707	2.738	2.773	2.814	2.857	2.906	2.959

CCCCCCCCCCCCCC[P+](CCCCCC)(CCCCCC)CCCCCC.c1c[n-]nn1 + CCCCCCn1cc[n+](C)c1.O=S(=O)([N-]S(=O)(=O)C(F)(F)F)C(F)(F)F
viscosity [mPa·s], 100 kPa
Settings	293.15 K	298.15 K	303.15 K	308.15 K	313.15 K	318.15 K	323.15 K
x1 = 0.151	159	122	96	77	62	51	–
x1 = 0.302	268	200	152	119	94	76	62
x1 = 0.42	402	294	219	168	131	104	84
x1 = 0.55	498	358	262	197	151	118	94
x1 = 0.652	614	437	317	236	180	139	109
x1 = 0.7	725	511	369	274	206	159	125
x1 = 0.865	744	527	382	284	215	166	131
